Tested on: dietary hyperlipidemia hamsters
Experiment: Efficacy test in dietary hyperlipidemia hamsters (LDL cholesterol decreasing ratio)
Type: in vivo, Slc:Syrian male hamsters
Conditions: dose 0.01 mg/kg, oral once a day for seven days, high fat diet hamsters
Experimental: As test animals, the Slc:Syrian male hamsters were used. In order to create dietary hyperlipidemia models, the hamsters were fed ad libitum with a high fat diet (mixed diet of 0.5% cholesterol and 10% palm oil) for a period from two weeks before the start of the administration of the test compound to the end of the experiment. Blood was collected one day before the day of the start of the administration, and the total blood cholesterol concentration was measured by the direct method using an automatic analyzer. On the basis of this total blood cholesterol concentration, the animals were divided into groups. From the next day, the test compound was orally administered once a day for seven days, and the animals were dissected on the day following the day of the final administration. The LDL-cholesterol concentration in the collected blood was measured by the direct method using an automatic analyzer, and LDL cholesterol decreasing ratio was calculated in accordance with the following equation for each group.
Equation: LDL cholesterol decreasing ratio (%)=[(Average LDL-cholesterol concentration of control group−Average LDL-cholesterol concentration of test compound-administered group)/Average LDL-cholesterol concentration of control group]×100
In the case of `FC(F)(F)c1ccc(-c2nc3ccc(C(F)(F)F)c(Cl)c3o2)cc1` [Example 7, 7-Chloro-6-trifluoromethyl-2-(4-trifluoromethylphenyl)benzoxazole], the “LDL cholesterol decreasing ratio (%)” value is reported as 45.5%.

Same assay, conditions: dose 0.04 mg/kg, oral once a day for seven days, high fat diet hamsters
With `FC(F)(F)c1ccc(-c2nc3ccc(C(F)(F)F)c(Cl)c3o2)cc1` [Example 7, 7-Chloro-6-trifluoromethyl-2-(4-trifluoromethylphenyl)benzoxazole] the “LDL cholesterol decreasing ratio (%)” value was 56.9%.

Same assay, conditions: dose 0.2 mg/kg, oral once a day for seven days, high fat diet hamsters
With `FC(F)(F)c1ccc(-c2nc3cc(C(F)(F)F)cc(Cl)c3o2)cc1` [Example 28, 7-Chloro-5-(trifluoromethyl)-2-[4-(trifluoromethyl)phenyl]benzoxazole] the “LDL cholesterol decreasing ratio (%)” value was 63.6%.

Same assay, conditions: dose 1 mg/kg, oral once a day for seven days, high fat diet hamsters
With `N#Cc1ccc2nc(-c3ccc(C(F)(F)F)cc3)oc2c1C(F)(F)F` [Example 19, 6-Cyano-7-trifluoromethyl-2-(4-trifluoromethylphenyl)benzoxazole] the “LDL cholesterol decreasing ratio (%)” value was 35.2%.
With `FC(F)(F)c1ccc(-c2nc3ccc(C(F)(F)F)cc3o2)cc1` [Example 24, 6-(Trifluoromethyl)-2-[4-(trifluoromethyl)phenyl]benzoxazole] the “LDL cholesterol decreasing ratio (%)” value was 32.6%.

Same assay, conditions: dose 5 mg/kg, oral once a day for seven days, high fat diet hamsters
For `FC(F)(F)c1ccc(-c2nc3ccc(I)c(Cl)c3o2)cc1` [Example 6, 7-Chloro-6-iodo-2-(4-trifluoromethylphenyl)benzoxazole], the “LDL cholesterol decreasing ratio (%)” value was 41.8%.

Same assay, conditions: dose 50 mg/kg, oral once a day for seven days, high fat diet hamsters
In the case of `CC(C)OC(=O)C(C)(C)Oc1ccc(C(=O)c2ccc(Cl)cc2)cc1` [Phenofibrate, reference compound], the “LDL cholesterol decreasing ratio (%)” value is reported as 25.7%.

Tested on: PCSK9 protein
Experiment: Influence of test compound on PCSK9 protein production amount in HepG2 cells (ELISA)
Type: cell-based, human
Conditions: about 24 hours treatment, intracellular PCSK9 protein by ELISA, read-out: IC50 (50% PCSK9 production-suppressing concentration)
Experimental: A test compound was added to culture supernatant of cells of the human liver cancer-derived cell strain, HepG2 cells, and intracellular amount of the PCSK9 protein was measured by the enzyme-linked immunosorbent assay (ELISA) after 24 hours. Specifically, the HepG2 cells were inoculated into wells of a 96-well microplate at a density of 5 to 7.5×10^4 cells/well, and the culture supernatant was exchanged with the MEM medium containing 10% lipoprotein deficient serum (LPDS) on the next day. After the cells were further cultured for one day, the culture supernatant was exchanged with the 10% LPDS-containing MEM medium containing a test compound, and the cells were treated with the compound for about 24 hours. The medium for treating the cells was prepared by dissolving the test compound in dimethyl sulfoxide (DMSO), and adding the resulting solution to the 10% LPDS-containing medium. The medium for treating cells for control was prepared by adding DMSO to the 10% LPDS-containing medium at the same final concentration. After completion of the treatment of the cells, a solubilization buffer (1% Nonidet P-40 in phosphate buffered saline) was added to the cells to extract proteins, and they were used as a sample.
The PCSK9 protein concentration and the total protein concentration in the sample were measured by using Human PCSK9 ELISA Kit produced by R&D Systems (Cat. No. DPC900), and BCA Protein Assay Reagent. Kit produced by Thermo Scientific (Cat. No. 23227) according to the protocols described in the attached manuals, respectively. The PCSK9 protein concentration in each sample was calculated as a concentration per unit mass of proteins. Then, by using PCSK9 production suppressing ratios at various concentrations obtained in accordance with the equation mentioned below, 50% PCSK9 production-suppressing concentration (IC50) of each compound was calculated with a linear regression equation.
Equation: PCSK9 production-suppressing ratio (%)=[(Average PCSK9 protein concentration in control group−Average PCSK9 protein concentration in test compound-treated group)/Average PCSK9 protein concentration in control group]×100
Work on `COc1ccc2cc3[n+](cc2c1OC)CCc1cc2c(cc1-3)OCO2` [Berberine chloride, reference compound] yielded an IC50 of over 10000 nM.
For `FC(F)(F)c1ccc(-c2nc3ccc(Cl)c(C(F)(F)F)c3o2)cc1` [Example 1, 6-Chloro-7-trifluoromethyl-2-(4-trifluoromethylphenyl)benzoxazole], the IC50 was 0.802 nM.
Work on `Fc1c(C(F)(F)F)ccc2nc(-c3ccc(C(F)(F)F)cc3)oc12` [Example 3, 7-Fluoro-6-trifluoromethyl-2-(4-trifluoromethylphenyl)benzoxazole] yielded an IC50 of 8.19 nM.
With `FC(F)(F)c1ccc(-c2nc3c(Cl)c(C(F)(F)F)ccc3o2)cc1` [Example 4, 4-Chloro-5-trifluoromethyl-2-(4-trifluoromethylphenyl)benzoxazole] the IC50 was 0.426 nM.
`FC(F)(F)c1ccc(-c2nc3ccc(I)c(Cl)c3o2)cc1` [Example 6, 7-Chloro-6-iodo-2-(4-trifluoromethylphenyl)benzoxazole] gave an IC50 of 2.5 nM.
`FC(F)(F)c1ccc(-c2nc3ccc(C(F)(F)F)c(Cl)c3o2)cc1` [Example 7, 7-Chloro-6-trifluoromethyl-2-(4-trifluoromethylphenyl)benzoxazole] gave an IC50 of 0.036 nM.
`FC(F)(F)c1ccc(-c2nc3c(C(F)(F)F)ccc(Cl)c3o2)cc1` [Example 8, 7-Chloro-4-trifluoromethyl-2-(4-trifluoromethylphenyl)benzoxazole] showed an IC50 of 0.153 nM.
`N#Cc1ccc2nc(-c3ccc(C(F)(F)F)cc3)oc2c1Cl` [Example 9, 7-Chloro-6-cyano-2-(4-trifluoromethylphenyl)benzoxazole] gave an IC50 of 0.0182 nM.
Work on `N#Cc1cc(Cl)c2nc(-c3ccc(C(F)(F)F)cc3)oc2c1` [Example 11, 4-Chloro-6-cyano-2-(4-trifluoromethylphenyl)benzoxazole] yielded an IC50 of 1.34 nM.
`Fc1c(Cl)cc2nc(-c3ccc(C(F)(F)F)cc3)oc2c1Cl` [Example 12, 5,7-Dichloro-6-fluoro-2-(4-trifluoromethylphenyl)benzoxazole] showed an IC50 of 2.94 nM.
`FC(F)(F)c1ccc(-c2nc3ccc(C4CC4)c(C(F)(F)F)c3o2)cc1` [Example 14, 6-Cyclopropyl-7-trifluoromethyl-2-(4-trifluoromethylphenyl)benzoxazole] gave an IC50 of 4.54 nM.
`CC(=O)Nc1ccc2nc(-c3ccc(C(F)(F)F)cc3)oc2c1C(F)(F)F` [Example 16, 6-Acetamido-7-trifluoromethyl-2-(4-trifluoromethylphenyl)benzoxazole] showed an IC50 of 2.08 nM.
`O=C(O)CCC(=O)Nc1ccc2nc(-c3ccc(C(F)(F)F)cc3)oc2c1C(F)(F)F` [Example 18, 6-(3-Carbonylpropanamido)-7-trifluoromethyl-2-(4-trifluoromethylphenyl)benzoxazole] gave an IC50 of 16.3 nM.
In the case of `N#Cc1ccc2nc(-c3ccc(C(F)(F)F)cc3)oc2c1C(F)(F)F` [Example 19, 6-Cyano-7-trifluoromethyl-2-(4-trifluoromethylphenyl)benzoxazole], the IC50 is reported as 0.188 nM.
`FC(F)(F)c1ccc(-c2nc3ccc(NC4CC4)c(C(F)(F)F)c3o2)cc1` [Example 20, 6-(Cyclopropylamino)-7-trifluoromethyl-2-(4-trifluoromethylphenyl)benzoxazole] showed an IC50 of 3.95 nM.
Work on `OCCNc1ccc2nc(-c3ccc(C(F)(F)F)cc3)oc2c1C(F)(F)F` [Example 21, 6-(2-Hydroxyethylamino)-7-trifluoromethyl-2-(4-trifluoromethylphenyl)benzoxazole] yielded an IC50 of 5.85 nM.
With `COc1cc(C#N)c(Cl)c2oc(-c3ccc(C(F)(F)F)cc3)nc12` [Example 22, 7-Chloro-6-cyano-4-methoxy-2-(4-trifluoromenthylphenyl)benzoxazole] the IC50 was 99 nM.
Work on `CCc1nc2c(ccc3oc(-c4ccc(C(F)(F)F)cc4)nc32)o1` [Example 23, 2-Ethyl-7(4-trifluoromethylphenyl)benzo[2,1-d:3,4-d′]bisoxazole] yielded an IC50 of 52.3 nM.
`FC(F)(F)c1ccc(-c2nc3ccc(C(F)(F)F)cc3o2)cc1` [Example 24, 6-(Trifluoromethyl)-2-[4-(trifluoromethyl)phenyl]benzoxazole] showed an IC50 of 21.4 nM.
`FC(F)(F)c1ccc(-c2nc3cccc(C(F)(F)F)c3o2)cc1` [Example 25, 7-(Trifluoromethyl)-2-[4-(trifluoromethyl)phenyl]benzoxazole] gave an IC50 of 24.5 nM.
`FC(F)(F)c1ccc(-c2nc3cc(Cl)c(C(F)(F)F)cc3o2)cc1` [Example 27, 5-Chloro-6-(trifluoromethyl)-2-[4-(trifluoromethyl)phenyl]benzoxazole] showed an IC50 of 12.3 nM.
With `FC(F)(F)c1ccc(-c2nc3cc(C(F)(F)F)cc(Cl)c3o2)cc1` [Example 28, 7-Chloro-5-(trifluoromethyl)-2-[4-(trifluoromethyl)phenyl]benzoxazole] the IC50 was 1.35 nM.
With `N#Cc1ccc2nc(-c3ccc(C(F)(F)F)cc3)oc2c1` [Example 29, 6-Cyano-2-[4-(trifluoromethyl)phenyl]benzoxazole] the IC50 was 27 nM.
`FC(F)(F)c1ccc(-c2nc3c(ccc4cc[nH]c43)o2)cc1` [Example 31, 2-(4-Trifluoromethylphenyl)-8H-pyrrolo[2,3-e]benzoxazole] showed an IC50 of 29.7 nM.
Molecule `Nc1ccc(Br)c2oc(-c3ccc(C(F)(F)F)cc3)nc12` [Example 33, 4-Amino-7-bromo-2-(4-trifluoromethylphenyl)benzoxazole] has an IC50 of 4.96 nM.
Work on `Nc1c(Cl)cc(Cl)c2oc(-c3ccc(C(F)(F)F)cc3)nc12` [Example 34, 4-Amino-5,7-dichloro-2-(4-trifluoromethylphenyl)benzoxazole] yielded an IC50 of 20.2 nM.
For `Nc1ccc(Cl)c2oc(-c3ccc(C(F)(F)F)cc3)nc12` [Example 35B, 4-Amino-7-chloro-2-(4-trifluoromethylphenyl)benzoxazole], the IC50 was 1.24 nM.
In the case of `N#Cc1cc(Cl)c2oc(-c3ccc(C(F)(F)F)cc3)nc2c1N` [Example 36, 4-Amino-7-chloro-5-cyano-2-(4-trifluoromethylphenyl)benzoxazole], the IC50 is reported as 5.17 nM.
Molecule `N#Cc1ccc(N)c2nc(-c3ccc(C(F)(F)F)cc3)oc12` [Example 38] has an IC50 of 27.3 nM.
`CN(C)c1nc2c(ccc3oc(-c4ccc(C(F)(F)F)cc4)nc32)s1` [Example 40, 7-Dimethylamino-2-(4-trifluoromethylphenyl)thiazolo[4,5-e]benzoxazole] gave an IC50 of 3.97 nM.
Work on `NCc1cccc2oc(-c3ccc(C(F)(F)F)cc3)nc12` [Example 41, 4-Aminomethyl-2-(4-trifluoromethylphenyl)benzoxazole] yielded an IC50 of 19.2 nM.
With `[O-][n+]1ccc2c(ccc3oc(-c4ccc(C(F)(F)F)cc4)nc32)c1` [Example 43, 2-[4-(Trifluoromethyl)phenyl]oxazolo[4,5-f]isoquinoline 7-oxide] the IC50 was 25.6 nM.
`Clc1ccc2nc(-c3nc4c(Cl)cccc4o3)sc2c1` [Example 44, 4-Chloro-2-(6-chloro-benzothiazol-2-yl)benzoxazole] gave an IC50 of 13.9 nM.
With `Nc1c(-c2ccc(C(F)(F)F)cc2)[nH]c2c(Cl)c(Cl)ccc12` [Example 45, 3-Amino-6,7-dichloro-2-(4-trifluoromethylphenyl)indole] the IC50 was 2.68 nM.
`CCN(CC)c1nc2c(ccc3cc(-c4ccc(C(F)(F)F)cc4)[nH]c32)o1` [Example 47, 2-Diethylamino-7-(4-trifluoromenthylphenyl)-8H-pyrrolo[2,3-e]benzoxazole] gave an IC50 of 45.4 nM.

Tested on: not given
Experiment: not given
Conditions: not given
`Nc1c(Cl)ccc2oc(-c3ccc(C(F)(F)F)cc3)nc12` [Example 35A, 4-Amino-5-chloro-2-(4-trifluoromethylphenyl)benzoxazole] showed a melting point of 132 to 134 °C.
With `Nc1ccc(Cl)c2oc(-c3ccc(C(F)(F)F)cc3)nc12` [Example 35B, 4-Amino-7-chloro-2-(4-trifluoromethylphenyl)benzoxazole] the melting point was 149 to 150 °C.

From patent US20170298081A1, “CONDENSED HETEROCYCLIC COMPOUND” (KASUMA PARTNERS INC., priority 2014, published 2017)
